Experimental data reported in PubChem BioAssay AID248 (DTP/NCI, 2004).
Inconclusive results and toxic doses are left out. Cut-off read from the data, not from the text of the source: active = T/C of 150% or more; inactive = T/C below 125%.

System: L1210 leukemia ip in BDF1 mice, survival T/C
Assay: NCI In Vivo Anticancer Drug Screen. Data for tumor model L1210 Leukemia (intraperitoneal) in B6D2F1 (BDF1) mice
Conditions: endpoint: mean survival time, higher = longer survival
Outline: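 Transplanted-tumor mice were given test agent; controls received vehicle only. Survival readings from the two groups were divided (treated over control).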

[1] = dose: 100.0 mg/kg/injection, schedule: Q04DX003 (ip), vehicle: alcohol
[2] = dose: 200.0 mg/kg/injection, schedule: Q04DX003 (ip), vehicle: alcohol
[3] = dose: 400.0 mg/kg/injection, schedule: Q04DX003 (ip), vehicle: alcohol
[4] = dose: 12.5 mg/kg/injection, schedule: Q01DX009 (ip), vehicle: Klucel (hydroxypropylcellulose) (HPC)
[5] = dose: 25.0 mg/kg/injection, schedule: Q04DX003 (ip), vehicle: Klucel (hydroxypropylcellulose) (HPC)
[6] = dose: 50.0 mg/kg/injection, schedule: Q04DX003 (ip), vehicle: Klucel (hydroxypropylcellulose) (HPC)
[7] = dose: 100.0 mg/kg/injection, schedule: Q01DX001 (ip), vehicle: saline
[8] = dose: 200.0 mg/kg/injection, schedule: Q01DX001 (ip), vehicle: saline
[9] = dose: 400.0 mg/kg/injection, schedule: Q01DX001 (ip), vehicle: saline
[10] = dose: 25.0 mg/kg/injection, schedule: Q01DX009 (ip), vehicle: Klucel (hydroxypropylcellulose) (HPC)
[11] = dose: 50.0 mg/kg/injection, schedule: Q01DX009 (ip), vehicle: Klucel (hydroxypropylcellulose) (HPC)
[12] = dose: 100.0 mg/kg/injection, schedule: Q01DX009 (ip), vehicle: Klucel (hydroxypropylcellulose) (HPC)
[13] = dose: 200.0 mg/kg/injection, schedule: Q01DX009 (ip), vehicle: Klucel (hydroxypropylcellulose) (HPC)
[14] = dose: 100.0 mg/kg/injection, schedule: Q01DX009 (ip), vehicle: saline
[15] = dose: 200.0 mg/kg/injection, schedule: Q01DX009 (ip), vehicle: saline
[16] = dose: 100.0 mg/kg/injection, schedule: Q04DX002 (ip), vehicle: Klucel (hydroxypropylcellulose) (HPC)
[17] = dose: 200.0 mg/kg/injection, schedule: Q04DX002 (ip), vehicle: Klucel (hydroxypropylcellulose) (HPC)
[18] = dose: 100.0 mg/kg/injection, schedule: Q01DX009 (ip), vehicle: saline with Tween-80
[19] = dose: 200.0 mg/kg/injection, schedule: Q01DX009 (ip), vehicle: saline with Tween-80
[20] = dose: 400.0 mg/kg/injection, schedule: Q01DX009 (ip), vehicle: Klucel (hydroxypropylcellulose) (HPC)
[21] = dose: 100.0 mg/kg/injection, schedule: Q04DX003 (ip), vehicle: Klucel (hydroxypropylcellulose) (HPC)
[22] = dose: 200.0 mg/kg/injection, schedule: Q04DX003 (ip), vehicle: Klucel (hydroxypropylcellulose) (HPC)
[23] = dose: 400.0 mg/kg/injection, schedule: Q04DX003 (ip), vehicle: Klucel (hydroxypropylcellulose) (HPC)
[24] = dose: 100.0 mg/kg/injection, schedule: Q04DX003 (ip), vehicle: saline
[25] = dose: 200.0 mg/kg/injection, schedule: Q04DX003 (ip), vehicle: saline
[26] = dose: 400.0 mg/kg/injection, schedule: Q04DX003 (ip), vehicle: saline

Measured: T/C

N#Cc1nn(CCCl)c(=O)c2ccccc12
inactive: dose: 100.0 mg/kg/injection, schedule: Q01DX001 (ip), vehicle: alcohol 98 % of control | [1] 95 % of control | dose: 200.0 mg/kg/injection, schedule: Q01DX001 (ip), vehicle: alcohol 107 % of control | [2] 97 % of control | dose: 400.0 mg/kg/injection, schedule: Q01DX001 (ip), vehicle: alcohol 107 % of control | [3] 87 % of control

Clc1nc2ccccc2nc1CI
inactive: dose: 6.25 mg/kg/injection, schedule: Q01DX009 (ip), vehicle: Klucel (hydroxypropylcellulose) (HPC) 94 % of control | [4] 102 % of control | dose: 25.0 mg/kg/injection, schedule: Q01DX009 (ip), vehicle: saline with Tween-80 89 % of control | [5] 102 % of control | [6] 90 % of control

Cc1ccc(N)cc1Cl
inactive: [1] 97 % of control | [2] 102 % of control | [3] 88 % of control

CCOC(=O)C[Si](C)(c1ccccc1)c1ccccc1
inactive: [7] 108 % of control | [8] 94 % of control | [9] 89 % of control

COc1cc(N(CCCl)CCCl)ccc1/C=N\NC(=O)c1cccnc1
inactive: [10] 87 % of control | dose: 50.0 mg/kg/injection, schedule: Q01DX001 (ip), vehicle: saline 105 % of control | [11] 88 % of control | [7] 105 % of control | [12] 90 % of control | [8] 100 % of control | [13] 96 % of control | [9] 97 % of control

CNC(=O)O/N=C(\C(=N\OC(=O)NC)c1ccccc1)c1ccccc1
inactive: dose: 100.0 mg/kg/injection, schedule: Q01DX001 (ip), vehicle: carboxymethylcellulose (CMC) 96 % of control | dose: 200.0 mg/kg/injection, schedule: Q01DX001 (ip), vehicle: carboxymethylcellulose (CMC) 96 % of control | dose: 400.0 mg/kg/injection, schedule: Q01DX001 (ip), vehicle: carboxymethylcellulose (CMC) 96 % of control

CC(C)(C)C1CCC(Cl)C(O)C1 (centres undefined)
inactive: [14] 104 % of control | [15] 100 % of control

O=C1CN(/N=C/c2ccc(-c3ccc(Cl)c(Cl)c3)o2)C(=O)N1
inactive: dose: 50.0 mg/kg/injection, schedule: Q04DX002 (ip), vehicle: Klucel (hydroxypropylcellulose) (HPC) 100 % of control | [16] 110 % of control | [17] 95 % of control

COC(=O)CCc1ccc(NP(=O)(N2CC2)N2CC2)cc1
inactive: dose: 25.0 mg/kg/injection, schedule: Q01DX015 (ip), vehicle: carboxymethylcellulose (CMC) 122 % of control | dose: 50.0 mg/kg/injection, schedule: Q01DX015 (ip), vehicle: carboxymethylcellulose (CMC) 119 % of control

Cc1c2ccccc2c(CCl)c2ccc3ccccc3c12
inactive: dose: 12.5 mg/kg/injection, schedule: Q01DX009 (ip), vehicle: carboxymethylcellulose (CMC) 110 % of control | dose: 25.0 mg/kg/injection, schedule: Q01DX009 (ip), vehicle: carboxymethylcellulose (CMC) 113 % of control

OC(COc1ccc(Cl)cc1)COc1ccc(Cl)cc1
inactive: dose: 100.0 mg/kg/injection, schedule: Q01DX001 (ip), vehicle: saline with Tween-80 95 % of control | [18] 97 % of control | dose: 100.0 mg/kg/injection, schedule: Q04DX003 (ip), vehicle: saline with Tween-80 98 % of control | [19] 98 % of control | dose: 200.0 mg/kg/injection, schedule: Q04DX003 (ip), vehicle: saline with Tween-80 103 % of control | dose: 400.0 mg/kg/injection, schedule: Q01DX009 (ip), vehicle: saline with Tween-80 101 % of control | dose: 400.0 mg/kg/injection, schedule: Q04DX003 (ip), vehicle: saline with Tween-80 95 % of control

CCOc1ccccc1NC(=O)NCC(=O)N/N=C/c1ccc(O)c(OC)c1
inactive: [12] 95 % of control | [13] 90 % of control | [20] 91 % of control

O=C(NCc1ccncc1)Nc1ccccc1
inactive: [16] 103 % of control | [17] 103 % of control | dose: 400.0 mg/kg/injection, schedule: Q04DX002 (ip), vehicle: Klucel (hydroxypropylcellulose) (HPC) 106 % of control

Cc1ccc2c(c1)c(N=NC(N)=S)c(O)n2C1OC(CO)C(O)C(O)C1O (centres undefined)
inactive: dose: 50.0 mg/kg/injection, schedule: Q01DX005 (ip), vehicle: saline 94 % of control | dose: 100.0 mg/kg/injection, schedule: Q01DX005 (ip), vehicle: saline 91 % of control | dose: 200.0 mg/kg/injection, schedule: Q01DX005 (ip), vehicle: saline 94 % of control

CCCCCCCCCCC[CH2][Hg][CH2]CCCCCCCCCCC
inactive: [21] 96 % of control | [22] 89 % of control | [23] 87 % of control

CCCCC(CC)NC(=O)c1ccc(OC)cc1 (centres undefined)
inactive: [4] 106 % of control | [10] 101 % of control | [5] 105 % of control | [11] 95 % of control | [6] 103 % of control | [12] 101 % of control | [21] 100 % of control | [22] 103 % of control | [23] 100 % of control

CC(=O)OC1CCC(CC2CCCCC2)CC1 (centres undefined)
inactive: [11] 94 % of control | [12] 100 % of control | [13] 100 % of control | [20] 93 % of control

CCCCCc1ccc(C(C)=O)cc1
inactive: [24] 100 % of control | [25] 114 % of control | [26] 114 % of control

O=S(=O)(/C(=C\c1ccccc1)c1ccccc1)C(Cl)c1ccccc1 (centres undefined)
inactive: [7] 96 % of control | [8] 110 % of control | [9] 95 % of control

COc1ccc(C2=NNC(=O)C2(C)Br)cc1 (centres undefined)
inactive: [7] 105 % of control | [8] 91 % of control | [9] 100 % of control

CCOC(=O)Nc1ccccc1C
inactive: [21] 95 % of control | [22] 100 % of control | dose: 222.0 mg/kg/injection, schedule: Q01DX Z (ip), vehicle: methylcellulose (MC) 101 % of control | dose: 333.0 mg/kg/injection, schedule: Q01DX Z (ip), vehicle: methylcellulose (MC) 101 % of control | [23] 94 % of control

O=c1oc(-c2cccc([N+](=O)[O-])c2)nc2ccccc12
inactive: dose: 50.0 mg/kg/injection, schedule: Q01DX009 (ip), vehicle: saline with Tween-80 97 % of control | [18] 94 % of control | [19] 93 % of control

CC(C)(C)C1CCC(S(C)(=O)=O)C(Cl)C1 (centres undefined)
inactive: [14] 110 % of control | [24] 102 % of control | [15] 106 % of control | [25] 96 % of control | dose: 400.0 mg/kg/injection, schedule: Q01DX009 (ip), vehicle: saline 102 % of control | [26] 105 % of control

CC[N+](C)(CC)CCCN1C(=O)c2ccccc2S1(=O)=O
inactive: dose: 22.0 mg/kg/injection, schedule: Q01DX Z (ip), vehicle: methylcellulose (MC) 94 % of control | dose: 33.0 mg/kg/injection, schedule: Q01DX Z (ip), vehicle: methylcellulose (MC) 96 % of control | dose: 50.0 mg/kg/injection, schedule: Q01DX Z (ip), vehicle: methylcellulose (MC) 91 % of control

Cc1cc(C)c(CC(=N)c2ccccc2)c(C)c1
inactive: dose: 100.0 mg/kg/injection, schedule: Q01DX001 (ip), vehicle: acetone 96 % of control | dose: 200.0 mg/kg/injection, schedule: Q01DX001 (ip), vehicle: acetone 94 % of control | dose: 400.0 mg/kg/injection, schedule: Q01DX001 (ip), vehicle: acetone 88 % of control

O=NN(c1ccccc1)c1ccccc1
inactive: dose: 100.0 mg/kg/injection, schedule: Q01DX001 (ip), vehicle: Klucel (hydroxypropylcellulose) (HPC) 98 % of control | [12] 100 % of control | dose: 200.0 mg/kg/injection, schedule: Q01DX001 (ip), vehicle: Klucel (hydroxypropylcellulose) (HPC) 101 % of control | [13] 102 % of control | dose: 400.0 mg/kg/injection, schedule: Q01DX001 (ip), vehicle: Klucel (hydroxypropylcellulose) (HPC) 87 % of control | [20] 92 % of control
